Data reported in PMC5909415 (ACS nano, 2015).

How the values were obtained:
HSA = HSA (Homo sapiens, UniProt P02768); assay: Interaction between avasimibe and HSA; assay type: binding; conditions: avasimibe:HSA molar ratio 16:1, warfarin:HSA 10:1, warfarin fluorescence
PC3 = assay: Cell viability assay; assay type: cell-based; conditions: Homo sapiens, PC-3, 72 h, read-out: IC50 of avasimin (containing avasimibe)
[1] = Blood bioavailability of avasimibe; assay type: in vivo, mice; conditions: nude, mouse, whole blood, po
[2] = Tissue distribution of avasimibe in PC3 tumor-bearing mice; assay type: in vivo; conditions: oral avasimibe 15 mg/kg, 2 hr
PC3 tumors = assay: Anti-tumor effect, PC3 tumor xenograft; conditions: oral avasimibe 15 mg/kg daily by gavage, versus PBS
cancer and normal cells = assay: Cell viability assay; assay type: cell-based, human; conditions: 72 h

Sequence of HSA (P02768 25-609): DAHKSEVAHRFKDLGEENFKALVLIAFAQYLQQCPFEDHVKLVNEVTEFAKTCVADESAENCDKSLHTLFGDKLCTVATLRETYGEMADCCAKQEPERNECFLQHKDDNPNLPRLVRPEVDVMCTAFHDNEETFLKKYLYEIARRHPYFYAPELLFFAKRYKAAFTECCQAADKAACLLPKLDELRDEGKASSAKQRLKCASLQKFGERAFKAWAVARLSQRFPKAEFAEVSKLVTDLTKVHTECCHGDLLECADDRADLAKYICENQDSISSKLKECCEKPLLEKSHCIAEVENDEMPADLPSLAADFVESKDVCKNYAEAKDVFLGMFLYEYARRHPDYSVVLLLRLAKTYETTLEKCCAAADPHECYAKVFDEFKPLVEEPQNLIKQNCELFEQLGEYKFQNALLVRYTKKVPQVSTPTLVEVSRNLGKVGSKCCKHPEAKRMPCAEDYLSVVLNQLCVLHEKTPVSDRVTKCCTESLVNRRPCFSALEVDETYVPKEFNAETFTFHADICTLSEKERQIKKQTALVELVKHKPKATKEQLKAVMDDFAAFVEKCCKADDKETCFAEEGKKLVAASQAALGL

Row | SMILES | replacement of warfarin at the primary binding site (site I) of HSA (HSA) | IC50 (PC3) [µM] | AUC ([1]; 15 mg/kg) [ng·h/mL] | AUC ([1]; 100 mg/kg) [ng·h/mL] | avasimibe in the tumor tissue [2] | distribution of avasimibe to liver [2] | excretion of avasimibe through feces [2] | anti-tumor effect in terms of tumor volume (PC3 tumors) | effect on viability of cancer and normal cells (cancer and normal cells)
1 | CC(C)c1cc(C(C)C)c(CC(=O)NS(=O)(=O)Oc2c(C(C)C)cccc2C(C)C)c(C(C)C)c1 [avasimibe] | complete replacement of warfarin | 8.5 | 14900 | 49900 | not detectable | most orally administered avasimibe was found in the liver tissue | considerable amount of avasimibe was excreted through the feces | did not exhibit anti-tumor effect | 
2 | Nc1ccn([C@@H]2O[C@H](CO)[C@@H](O)C2(F)F)c(=O)n1 [gemcitabine] |  |  |  |  |  |  |  |  | non-selective cytotoxic effects
3 | N.N.[Cl][Pt][Cl] [cisplatin] |  |  |  |  |  |  |  |  | non-selective cytotoxic effects
